Counter-ions that a name gives are not always drawn.

The target of this assay is T1, 5HT1A (Rattus norvegicus, UniProt P19327).
T1 construct: Cerebral cortex + hippocampus from each rat was dissected and homogenized; from tissue; host or cells: rat cerebral cortex + hippocampus homogenate
T1 sequence (P19327 1-422): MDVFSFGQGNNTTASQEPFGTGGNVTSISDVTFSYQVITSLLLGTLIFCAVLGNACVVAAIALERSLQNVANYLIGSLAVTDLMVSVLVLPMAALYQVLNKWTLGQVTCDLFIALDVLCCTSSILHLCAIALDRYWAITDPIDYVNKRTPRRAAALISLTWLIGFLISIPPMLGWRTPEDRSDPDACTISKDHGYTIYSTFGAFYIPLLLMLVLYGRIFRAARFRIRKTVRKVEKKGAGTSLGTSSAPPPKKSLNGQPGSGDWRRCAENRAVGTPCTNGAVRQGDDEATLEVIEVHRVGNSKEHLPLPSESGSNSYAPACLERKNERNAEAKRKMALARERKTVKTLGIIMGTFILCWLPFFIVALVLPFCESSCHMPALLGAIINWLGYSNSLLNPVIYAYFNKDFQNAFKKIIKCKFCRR
The experiment in a line: 5HT1A binding assay (receptor binding, 3H-8-OH-DPAT, rat cerebral cortex + hippocampus). The following applies: 3H-8-OH-DPAT (0.25 to 8 nM), rat cerebral cortex + hippocampus homogenate, 37° C., 10 min, pH 7.5. The method, then:
Another observation is that some of these compounds have a particularly good oral bioavailability. In order to evaluate the affinity for this subgroup of/the 5-HT-receptors, the effects on various receptors in rat brain were measured in vitro using receptor assays (Ki nM).
5HT1A binding assay. Cerebral cortex + hippocampus from each rat was dissected and homogenized in 15 ml ice-cold 50 mM Tris-HCl buffer 4.0 mM CaCl2 and 5.7 mM ascorbic acid, pH 7.5 with an Ultra-Turrax (Janke & Kunkel, Staufen, FRG) for ten s. After centrifugation for 12.5 min at 17,000 rpm (39,800×g in a Beckman centrifuge with a chilled JA-17 rotor (Beckman, Palo Alto, Calif., USA), the pellets were resuspended in the same buffer and homogenization and centrifugation repeated. To each pellet 5 ml ice-cold 0.32M sucrose were added and homogenized for 5 sec. These samples were kept frozen at -70° C. When used they were diluted with the buffer to 8 mg tissue/ml and homogenized for 10 sec.
The tissue homogenates were incubated for ten min at 37° C. and then supplied with 10 μM pargyline followed by reincubation for 10 min.
The binding assay followed that described by Peroutka, J. Neurochem. 47, 529-540, (1986). The incubation mixture (2 ml) contained ^3 H-8-OH-DPAT (0.25 to 8 nM), 5 mg/ml tissue homogenate in 50 mM Tris-HCl buffer containing 4.0 mM CaCl2 and 5.7 mM ascorbic acid, pH 7.5. Six different concentrations of ^3 H-8-OH-DPAT were analyzed. Binding experiments were started by the addition of tissue homogenate and followed by incubation at 37° C. for ten min. The incubation mixtures were filtered through Whatman GF/B glass filters with a Brandel Cell Harvester (Gaithersburg, Md., USA). The filters were washed twice with 5 ml ice-cold 50 mM Tria-HCl buffer, pH 7.5, and counted with 5 ml Ready-solv HP (Beckman) in a Beckman LS 3801 scintillation counter. Non-specific binding was measured by the addition of 10 μM 5-HT to the reaction mixture. The binding data was processed by non-linear least squares computer/analysis (Munson and Rodbard, Anal. Biochem. 107, 220-239, (1980).
For `CCCN(CCC)C1CCc2cccc(C(C)=O)c2C1` (racemic) [Example 2, (±)-8-Acetyl-2-(dipropylamino)tetralin hydrochloride], the inhibition constant Ki is 0.9 nM. With `CCCN(CCC)C1CCc2cccc(-c3ccco3)c2C1` (racemic) [Example 11, (±)-8-(2-Furanyl)-2-(dipropylamino)tetralin oxalate], the inhibition constant Ki stood at 1.5 nM. On to `CCCN(CCC)C1CCc2cccc(C(C)=O)c2C1` (single isomer, unassigned; (+)) [Example 6, (+)-8-Acetyl-2-(dipropylamino)tetralin hydrochloride], for which the Ki was 1.7 nM.

Values taken from patent publication US5635537A, “8-substituted-2-aminotetralins” (Astra Aktiebolag, priority 1989, dated 1997).
